Source: US11208642B2, “Microbial syringol utilization” (Alliance for Sustainable Energy, LLC, priority 2018, dated 2021)

Experiments:
Assay type in all cases: biochemical
GcoA-F169A [1] = molecular target: T1, GcoA-F169A (Amycolatopsis sp., UniProt P0DPQ7, F169A/H210Q); assay: Rate of NADH disappearance (UV/vis) with each substrate; settings: GcoA-F169A with the named substrate
T1 construct: GST (N, cleaved yes); made in house; host or cells: E. coli Rosetta 2 (DE3)
Procedure: (§1) To address whether guaiacol and/or syringol would serve as substrates of GcoA-F169A, the disappearance of NADH (UV/vis) and aromatic substrate (HPLC) was monitored over time (FIG. 1). The rates of organic substrate and NADH consumption were robust and the same within error, regardless of whether guaiacol or syringol was used (5.3±0.3 μM guaiacol s^−1 μmol GcoA-F169A^−1, 5.8±0.8 μM NADH s^−1 μmol GcoA-F169A-1; 4.1±0.3 μM syringol s^−1 μmol GcoA-F169A^−1, 5.1±0.8 μM NADH s^−1 μmol GcoA-F169A^−1).
Steady state kinetics of F169A. 0.2 μM each of F169A GcoA and GcoB were dissolved in air-saturated buffer (25 mM HEPES, 50 mM NaCl) in a cuvette at pH 7.5, 25° C. 100 μg/mL catalase was added to each reaction to capture any H2O2 formed during the uncoupled reaction. A saturating amount of NADH (≥5 KM, 300 μM) was added and a background rate of NADH oxidation in air (about 210 μM O2) recorded via continuous scanning of the UV/vis spectrum (Varian Cary 50). 20-300 μM guaiacol or syringol 2-20 mM stock dissolved in DMSO was added and the reaction was monitored via measurement of UV/vis spectra for several minutes. The initial velocity was determined by disappearance of the characteristic NADH absorbance at 340 nm ([…]=6.22 mM^−1 cm^−1). A plot of vi versus the concentration of guaiacol was fit to equation 4 to obtain kcat, KM, and kcat/KM. For specific activity determination, the above method was used but with saturating (300 μM) guaiacol, syringol, or 3-methoxycatechol (3MC), and in the presence of all F169 GcoA mutants (A, H, S, V, I, L). The linear portion of the concentration of NADH versus time was fit and referenced to the amount of GcoA used (0.2 μM). Reported values are the average of at least 3 measurements and reported errors are standard deviations. vi=Vmax[S]/(KM+[S]) Equation (4): […]

GcoA-F169A [2] = molecular target: T1, GcoA-F169A; assay: Rate of aromatic substrate disappearance by discontinuous HPLC; settings: GcoA-F169A/GcoB, substrate disappearance over time
Procedure: as §1
HPLC for product identification and specific activity measurement. HPLC was used to verify the O-demethylated product of GcoA-F169A GcoA/GcoB with guaiacol, syringol, or 3MC. In addition, discontinuous HPLC was used to determine the specific activity of aromatic […] disappearance.
Analyte analysis of the above end-point reactions (100 μM guaiacol, syringol, or 3MC, or 200 μM syringol) was performed on an Agilent 1100 LC system (Agilent Technologies) equipped with a G1315B diode array detector (DAD). Each sample and standard was injected at a volume of 10 μL onto a Symmetry C18 column 5 μm, 4.6×150 mm column (Waters). The column temperature was maintained at 30° C. and the buffers used to separate the analytes of interest was 0.01% TFA in water (A)/acetonitrile (B). The separation was carried out using a gradient program of: (A)=99% and (B)=1% at time t=0 min; (A)=99% and (B)=1% at time t=2 min, (A)=50% and (B)=50% at t=8 min; (A)=1% and (B)=99% at t=8.01 min; (A)=99% and (B)=1% at t=10.01 min; (A)=99% and (B)=1% at t=11 min. The flow rate was held constant at 1.5 mL min^−1, resulting in a run time of 11 minutes. DAD wavelengths of 210 and 325 nm were used for analysis of the analytes of interest. […] Integrated intensities vs [standards] were plotted and the resulting standard curves used to quantify the reactants and products.
For specific activity determination, 300 μM guaiacol, syringol, or 3MC were added from 0.1 M DMSO stocks to air saturated buffer (25 mM HEPES, 50 mM NaCl, pH 7.5), with a final volume of 1 mL. The concentration of analyte was measured via the above HPLC method. […]

GcoA-F169A and GcoB = molecular target: T2, GcoA-F169A and GcoB (Amycolatopsis sp., UniProt P0DPQ7, F169A/H210Q); assay: Uncoupling reactions: endpoint formaldehyde referenced to NADH consumed; settings: for % Formaldehyde produced: referenced to NADH consumed; for Coupling efficiency: GcoA-F169A-catalyzed reaction
T2 construct: GST (N, cleaved yes); made in house; host or cells: E. coli Rosetta 2 (DE3)
T2 sequence (P0DPQ7 whole entry F169A/H210Q): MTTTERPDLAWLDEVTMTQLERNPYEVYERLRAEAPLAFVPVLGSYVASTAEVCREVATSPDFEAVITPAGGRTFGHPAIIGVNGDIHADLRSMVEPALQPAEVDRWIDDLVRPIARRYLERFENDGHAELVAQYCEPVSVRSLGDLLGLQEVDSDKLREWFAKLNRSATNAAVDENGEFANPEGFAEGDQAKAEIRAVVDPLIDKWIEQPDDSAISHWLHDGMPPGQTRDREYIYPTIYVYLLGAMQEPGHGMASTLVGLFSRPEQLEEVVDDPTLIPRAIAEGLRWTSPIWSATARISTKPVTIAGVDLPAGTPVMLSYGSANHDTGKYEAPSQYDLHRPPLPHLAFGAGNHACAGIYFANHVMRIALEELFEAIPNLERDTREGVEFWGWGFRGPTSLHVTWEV
Procedure: The ^a in Table 3 notes that 0.2 μM GcoA-F169A and GcoB were reacted with 100 μg catalase, 100 or 200 μM NADH, and 100 μM substrate in 25 mM HEPES, 50 mM NaCl, pH 7.5, 25° C., 210 μM O2. Endpoint analyses were done to quantify formaldehyde produced, which was then referenced to NADH consumed. The ^b in Table 3 notes that the same reaction done above was repeated to quantify H2O2 produced using the Amplex Red/HRP assay. The amount of hydrogen peroxide was then referenced to NADH consumed.
Formaldehyde determination. A colorimetric assay using tryptophan can be used to quantify the amount of formaldehyde produced in F169 GcoA/B reactions with guaiacol, syringol, or 3MC. 0.2 μM each of F169 GcoA mutants and GcoB were dissolved in air-saturated buffer (25 mM HEPES, 50 mM NaCl) in a cuvette at pH 7.5, 25° C. 100 μg/mL catalase was added to each reaction to capture any H2O2 formed during the uncoupled reaction. Two hundred μM NADH was added and the background rate recorded. One hundred (guaiacol, syringol, or 3MC) or 200 (syringol) μM of substrate was then added and the reaction monitored until there was no more change, due to either substrate, NADH or O2 depletion, whichever occurred first. 200 μL of the reaction was then quenched by adding 200 μL of a 0.1% tryptophan solution in 50% ethanol and 200 μL of 90% sulfuric acid. Upon thorough mixing, 40 μL of 1% FeCl3 was added. The solution was then incubated in a heating block for 90 min at 70° C. After cooling, the absorbance was read at 575 nm and the concentration of formaldehyde was calculated by using ε575 nm=4.2 mM^−1 cm^−1, obtained with formaldehyde as a standard. A negative control included everything but the substrate and was used as a baseline.

T1 sequence (P0DPQ7 whole entry F169A/H210Q): as above

| Structure (SMILES) | Rate of NADH consumption (UV/vis) (GcoA-F169A [1]) | Rate of organic substrate consumption (HPLC) (GcoA-F169A [2]) | % Formaldehyde produced (GcoA-F169A and GcoB; 100 μM substrate + 100 μM NADH) [%] | Coupling efficiency (GcoA-F169A and GcoB) [%] | % Formaldehyde produced (GcoA-F169A and GcoB; 100 μM substrate + 200 μM NADH) [%] |
| --- | --- | --- | --- | --- | --- |
| COc1cccc(O)c1O [3MC, 3-methoxycatechol] | 5.6±0.8 μM NADH s^−1 μmol GcoA-F169A^−1 | 2.6±0.3 μM s^−1 μmol GcoA-F169A^−1 | 52 ± 7 | 64±10 |  |
| COc1ccccc1O [guaiacol, 2-methoxyphenol] | 5.8±0.8 μM NADH s^−1 μmol GcoA-F169A^−1 | 5.3±0.3 μM s^−1 μmol GcoA-F169A^−1 | 100 ± 10 | 91±8 |  |
| COc1cccc(OC)c1O [syringol, 2,6-dimethoxyphenol] | 5.1±0.8 μM NADH s^−1 μmol GcoA-F169A^−1 | 4.1±0.3 μM s^−1 μmol GcoA-F169A^−1 | 125 ± 6 |  | 91 ± 8 |
